US7507748B2, “Substituted aryl-amine derivatives and methods of use” (Amgen Inc., priority 2004, dated 2009)

Tested on: Human Umbilical Vein Endothelial cells
Assay: VEGF-stimulated HUVEC proliferation assay
Assay type: cell-based
Settings: 72 h, CyQuant, read-out: inhibited VEGF-stimulated HUVEC proliferation at a level
Procedure: Human Umbilical Vein Endothelial cells are purchased from Clonetics, Inc., as cryopreserved cells harvested from a pool of donors. These cells, at passage 1, are thawed and expanded in EBM-2 complete medium, until passage 2 or 3. The cells are trypsinized, washed in DMEM+10% FBS+antibiotics, and spun at 1000 rpm for 10 min. Prior to centrifugation of the cells, a small amount is collected for a cell count. After centrifugation, the medium is discarded, and the cells are resuspended in the appropriate volume of DMEM+10% FBS+antibiotics to achieve a concentration of 3×10^5 cells/mL. Another cell count is performed to confirm the cell concentration. The cells are diluted to 3×10^4 cells/mL in DMEM+10% FBS+antibiotics, and 100 μL of cells are added to a 96-well plate. The cells are incubated at 37° C. for 22 h.
Prior to the completion of the incubation period, compound dilutions are prepared. Five-point, five-fold serial dilutions are prepared in DMSO, at concentrations 400-fold greater than the final concentrations desired. 2.5 μL of each compound dilution are diluted further in a total of 1 mL DMEM+10% FBS+antibiotics (400× dilution). Medium containing 0.25% DMSO is also prepared for the 0 μM compound sample. At the 22-hour timepoint, the medium is removed from the cells, and 100 μL of each compound dilution is added. The cells are incubated at 37° C. for 2-3 h.
During the compound pre-incubation period, the growth factors are diluted to the appropriate concentrations. Solutions of DMEM+10% FBS+antibiotics, containing either VEGF or bFGF at the following concentrations: 50, 10, 2, 0.4, 0.08, and 0 ng/mL are prepared. For the compound-treated cells, solutions of VEGF at 550 ng/mL or bFGF at 220 ng/mL for 50 ng/mL or 20 ng/mL final concentrations, respectively, are prepared since 10 μL of each will be added to the cells (110 μL final volume). At the appropriate time after adding the compounds, the growth factors are added. VEGF is added to one set of plates, while bFGF is added to another set of plates. For the growth factor control curves, the media on wells B4-G6 of plates 1 and 2 are replaced with media containing VEGF or bFGF at the varying concentrations (50-0 ng/mL). The cells are incubated at 37° C. for an additional 72 h.
At the completion of the 72 h incubation period, the medium is removed, and the cells are washed twice with PBS. After the second wash with PBS, the plates are tapped gently to remove excess PBS, and the cells are placed at −70° C. for at least 30 min. The cells are thawed and analyzed using the CyQuant fluorescent dye (Molecular Probes C-7026), following the manufacturer's recommendations. The plates are read on a Victor/Wallac 1420 workstation at 485 nm/530 nm (excitation/emission). Raw data are collected and analyzed using a 4-parameter fit equation in XLFit. IC50 values are then determined.

SMILES	IC50
O=C(Nc1ccc(C(F)(F)F)cc1)c1cccnc1Nc1ccc2ccncc2c1 [Example 12, 2-(Isoquinolin-7-ylamino)-N-(4-trifluoromethyl-phenyl)-nicotinamide]	< 1 µM
COc1cc(NC(=O)c2cccnc2Nc2ccc3ccncc3c2)cc(C(F)(F)F)c1 [Example 33, 2-(Isoquinolin-7-ylamino)-N-(3-methoxy-5-trifluoromethyl-phenyl)-nicotinamide]	< 1 µM
Cc1cc(NC(=O)c2cccnc2Nc2ccc3nc(N)ncc3c2)ccc1C(C)C [Example 63, 2-(2-aminoquinazolin-6-ylamino)-N-(3-methyl-4-(1-methylethyl)phenyl)nicotinamide]	< 1 µM
CCOC(=O)C(C)c1ccc(NC(=O)c2cccnc2Nc2ccc3ccncc3c2)cc1 (racemic) [Example 52, 2(R,S)-(4-{[2-(Isoquinolin-7-ylamino)-pyridine-3-carbonyl]-amino}-phenyl)-propionic acid ethyl ester]	< 1 µM
CC(C)(C)c1ccc(NC(=O)c2cccnc2Nc2cnc3ccncc3c2)cc1 [Example 35, N-(4-tert-Butyl-phenyl)-2-([1,6]naphthyridin-3-ylamino)-nicotinamide]	< 1 µM
CC1(C)CNCc2cc(NC(=O)c3cccnc3Nc3cccc4cnccc34)ccc21 [Example 69, N-(4,4-Dimethyl-1,2,3,4-tetrahydro-isoquinolin-7-yl)-2-(isoquinolin-5-ylamino)-nicotinamide]	< 1 µM
CC(C)(C)c1ccc(NC(=O)c2cccnc2Nc2ccc3ncncc3c2)cc1 [Example 56, N-(4-tert-Butyl-phenyl)-2-(quinazolin-6-ylamino)-nicotinamide]	< 1 µM
CC1(C)CNCc2cc(NC(=O)c3cccnc3Nc3ccc4c(c3)OC(F)(F)O4)ccc21 [Example 22, 2-(2,2-Difluoro-benzo[1,3]dioxol-5-ylamino)-N-(4,4-dimethyl-1,2,3,4-tetrahydro-isoquinolin-7-yl)-nicotinamide]	< 1 µM
CC(C(=O)O)c1ccc(NC(=O)c2cccnc2Nc2ccc3ccncc3c2)cc1 (racemic) [Example 53, 2(R,S)-(4-{[2-(Isoquinolin-7-ylamino)-pyridine-3-carbonyl]-amino}-phenyl)-propionic acid]	< 1 µM
CC1(C)CCNc2cc(NC(=O)c3ccccc3Nc3ccc4ccncc4c3)ccc21 [Example 28, N-(4,4-Dimethyl-1,2,3,4-tetrahydro-quinolin-7-yl)-2-(isoquinolin-7-ylamino)-benzamide]	< 1 µM
Cc1ccc(NC(=O)c2cccnc2Nc2ccc3nc(N)ncc3c2)cc1Cl [Example 64, 2-(2-aminoquinazolin-6-ylamino)-N-(3-chloro-4-methylphenyl)nicotinamide]	< 1 µM
CC1(C)CC(=O)Nc2nc(NC(=O)c3cccnc3Nc3ccc4ncncc4c3)ccc21 [Example 59, N-(5,5-dimethyl-7-oxo-5,6,7,8-tetrahydro-1,8-naphthyridin-2-yl)-2-(quinazolin-6-ylamino)nicotinamide]	< 1 µM
CC1(C)CN(C(=O)[C@H]2CCCO2)Cc2cc(NC(=O)c3cccnc3Nc3ccc4ccncc4c3)ccc21 (stereo in doubt) [Example 74, N-[4,4-Dimethyl-2-(tetrahydro-furan-2-carbonyl)-1,2,3,4-tetrahydro-isoquinolin-7-yl]-2-(isoquinolin-7-ylamino)-nicotinamide]	< 1 µM
CC(C)(C)c1ccc(NC(=O)c2cccc(F)c2Nc2ccc3ccncc3c2)cc1 [Example 29, N-(4-tert-Butyl-phenyl)-3-fluoro-2-(isoquinolin-7-ylamino)-benzamide]	< 1 µM
CC1(C)CCNc2cc(NC(=O)c3ccccc3Nc3ccc4ncncc4c3)ccc21 [Example 30, N-(4,4-Dimethyl-1,2,3,4-tetrahydro-quinolin-7-yl)-2-(quinazolin-6-ylamino)-benzamide]	< 1 µM
CC(C)(C)OC(=O)NCC(=O)N1Cc2cc(NC(=O)c3cccnc3Nc3ccc4ccncc4c3)ccc2C(C)(C)C1 [Example 73, [2-(7-{[2-(Isoquinolin-7-ylamino)-pyridine-3-carbonyl]-amino}-4,4-dimethyl-3,4-dihydro-1H-isoquinolin-2-yl)-2-oxo-ethyl]-carbamic acid tert-butyl ester]	< 1 µM

SMILES	IC50
CC1(C)CNCc2cc(NC(=O)c3cccnc3Nc3ccc4ccncc4c3)ccc21 [Example 41, N-(4,4-Dimethyl-1,2,3,4-tetrahydro-isoquinolin-7-yl)-2-(isoquinolin-7-ylamino)-nicotinamide]	< 1 µM
CC1(C)CNCc2cc(NC(=O)c3cccnc3Nc3cnc4ccncc4c3)ccc21 [Example 37, N-(4,4-Dimethyl-1,2,3,4-tetrahydro-isoquinolin-7-yl)-2-([1,6]naphthyridin-3-ylamino)-nicotinamide]	< 1 µM
O=C(Nc1ccc(OC(F)(F)F)cc1)c1cccnc1Nc1ccc2ccncc2c1 [Example 61, 2-(isoquinolin-7-ylamino)-N-(4-(trifluoromethoxy)phenyl)nicotinamide]	< 1 µM
CC(C)(C)c1cc(NC(=O)c2cccnc2Nc2ccc3[nH]nnc3c2)no1 [Example 25, 2-(1H-benzo[d][1,2,3]triazol-5-ylamino)-N-(5-tert-butylisoxazol-3-yl)nicotinamide]	< 1 µM
Nc1ncc2cc(Nc3ncccc3C(=O)Nc3ccc(Cl)cc3)ccc2n1 [Example 65, 2-(2-aminoquinazolin-6-ylamino)-N-(4-chlorophenyl)nicotinamide]	< 1 µM
CC1(C)CC(=O)Nc2cc(NC(=O)c3cccnc3Nc3ccc4[nH]nnc4c3)ccc21 [Example 24, 2-(1H-1,2,3-benzotriazol-5-ylamino)-N-(4,4-dimethyl-2-oxo-1,2,3,4-tetrahydroquinolin-7-yl)nicotinamide]	< 1 µM
CC(C)(C)c1cc(NC(=O)c2cccnc2Nc2ccc3ncncc3c2)on1 [Example 50, N-(3-tert-Butyl-isoxazol-5-yl)-2-(quinazolin-6-ylamino)-nicotinamide]	< 1 µM
CC1(C)CC(=O)Nc2cc(NC(=O)c3cccnc3Nc3ccc4ccncc4c3)ccc21 [Example 54, N-(4,4-Dimethyl-2-oxo-1,2,3,4-tetrahydro-quinolin-7-yl)-2-(isoquinolin-7-ylamino)-nicotinamide]	< 1 µM
CC(C)(C)c1ccc(NC(=O)c2ccccc2Nc2ccc3ccncc3c2)cc1 [Example 27, N-(4-tert-Butyl-phenyl)-2-(isoquinolin-7-ylamino)-benzamide]	< 1 µM
CC1(C)CNCc2cc(NC(=O)c3ccccc3Nc3ccc4ccncc4n3)ccc21 [Example 77, N-(4,4-Dimethyl-1,2,3,4-tetrahydro-isoquinolin-7-yl)-2-([1,7]naphthyridin-2-ylamino)-benzamide]	< 1 µM
CC(=O)N1Cc2cc(NC(=O)c3cccnc3Nc3ccc4ccncc4c3)ccc2C(C)(C)C1 [Example 13, N-(2-Acetyl-4,4-dimethyl-1,2,3,4-tetrahydro-isoquinolin-7-yl)-2-(isoquinolin-7-ylamino)-nicotinamide]	< 1 µM
O=C1CSc2ccc(NC(=O)c3cccnc3Nc3ccc4ccncc4c3)cc2N1 [Example 55, 2-(isoquinolin-7-ylamino)-N-(3-oxo-3,4-dihydro-2H-1,4-benzothiazin-6-yl)nicotinamide]	< 1 µM
O=C(Nc1ccc(C(F)(F)C(F)(F)F)cc1)c1cccnc1Nc1ccc2ccncc2c1 [Example 11, 2-(Isoquinolin-7-ylamino)-N-(4-pentafluoroethyl-phenyl)-nicotinamide]	< 1 µM
O=C(Nc1ccc(C(O)(C(F)(F)F)C(F)(F)F)cc1)c1cccnc1Nc1ccc2ccncc2c1 [Example 43, 2-(Isoquinolin-7-ylamino)-N-[4-(2,2,2-trifluoro-1-hydroxy-1-trifluoromethyl-ethyl)-phenyl]-nicotinamide]	< 1 µM
CC(C)(C)c1ccc(NC(=O)c2cccnc2Nc2cccc3cnccc23)cc1 [Example 67, N-(4-tert-Butyl-phenyl)-2-(isoquinolin-5-ylamino)-nicotinamide]	< 1 µM
CC(C)c1ccc(NC(=O)c2cccnc2Nc2ccc3ccncc3c2)cc1 [Example 44, N-(4-Isopropyl-phenyl)-2-(isoquinolin-7-ylamino)-nicotinamide]	< 1 µM
